Results taken from patent EP4001279A1, “NOVEL SPIROPYRROLIDINE DERIVED ANTIVIRAL AGENTS” (Enanta Pharmaceuticals, Inc., priority 2020, dated 2022).

What follows are molecules tested on 229E human corona virus (hCoV) (assay: 229E live virus assay (CPE, ATPlite readout in MRC-5 cells)). Settings: Human coronavirus 229E, MRC5, hCoV-229E live virus, MOI 0.05, ATPlite readout, run in duplicate.
Type: cell-based, hCoV-229E

| Compound | EC50 |
| --- | --- |
| CN(C(=O)c1cc2c(F)cc(F)cc2[nH]1)[C@@H](CC1CCC1)C(=O)N1C[C@]2(C[C@H]1C#N)C(=O)Nc1ccccc12 [Example 91] | < 100 nM |
| COc1cccc2[nH]c(C(=O)N(C)[C@@H](CC3CCC3)C(=O)N3C[C@]4(C[C@H]3C#N)C(=O)Nc3ccccc34)cc12 [Example 92] | < 100 nM |
| CN(C(=O)c1cc2c(F)cccc2[nH]1)[C@@H](CC1CCC1)C(=O)N1C[C@]2(C[C@H]1C#N)C(=O)Nc1ccccc12 [Example 93] | < 100 nM |
| CCN(C(=O)c1cc2c(F)cccc2[nH]1)[C@@H](CC(C)C)C(=O)N1C[C@]2(C[C@H]1C#N)C(=O)Nc1ccccc12 [Example 95] | 100 to 1000 nM |
| C=CCN(C(=O)OCc1ccccc1)[C@@H](CC(C)C)C(=O)N1C[C@]2(C[C@H]1C#N)C(=O)Nc1ccccc12 [Example 96] | 100 to 1000 nM |
| CCCN(C(=O)OCc1ccccc1)[C@@H](CC(C)C)C(=O)N1C[C@]2(C[C@H]1C#N)C(=O)Nc1ccccc12 [Example 97] | > 1000 nM |
| CCCN(C(=O)c1cc2c(F)cccc2[nH]1)[C@@H](CC(C)C)C(=O)N1C[C@]2(C[C@H]1C#N)C(=O)Nc1ccccc12 [Example 98] | 100 to 1000 nM |
| CC(C)CC[C@@H](C(=O)N1C[C@]2(C[C@H]1C#N)C(=O)Nc1ccccc12)N(C)C(=O)OCc1ccccc1 [Example 100] | 100 to 1000 nM |
| CN(C(=O)OCc1ccccc1)[C@@H](CC1CC1)C(=O)N1C[C@]2(C[C@H]1C#N)C(=O)Nc1ccccc12 [Example 102] | > 1000 nM |
| CC(C)CC[C@@H](C(=O)N1C[C@]2(C[C@H]1C#N)C(=O)Nc1ccccc12)N(C)C(=O)c1cc2c(F)cc(F)cc2[nH]1 [Example 104] | < 100 nM |
| COc1cccc2[nH]c(C(=O)N(C)[C@@H](CCC(C)C)C(=O)N3C[C@]4(C[C@H]3C#N)C(=O)Nc3ccccc34)cc12 [Example 105] | < 100 nM |
| COc1cccc2[nH]c(C(=O)N(C)[C@@H](CC3CCCCC3)C(=O)N3C[C@]4(C[C@H]3C#N)C(=O)Nc3ccccc34)cc12 [Example 113] | < 100 nM |
| COc1cccc2[nH]c(C(=O)N(C)[C@@H](CC3CC3)C(=O)N3C[C@]4(C[C@H]3C#N)C(=O)Nc3ccccc34)cc12 [Example 114] | < 100 nM |
| CN(C(=O)c1cc2c(F)cc(F)cc2[nH]1)[C@@H](CC1CC1)C(=O)N1C[C@]2(C[C@H]1C#N)C(=O)Nc1ccccc12 [Example 115] | < 100 nM |
| CN(C(=O)c1cc2c(F)cccc2[nH]1)[C@@H](CC1CC1)C(=O)N1C[C@]2(C[C@H]1C#N)C(=O)Nc1ccccc12 [Example 116] | < 100 nM |
| COc1cccc2[nH]c(C(=O)N[C@@H](CC(C)C)C(=O)N3C[C@]4(C[C@H]3C=O)C(=O)N(C)c3ccccc34)cc12 [Example 119] | 100 to 1000 nM |
| COc1cccc2[nH]c(C(=O)N[C@@H](CC(C)C)C(=O)N3C[C@]4(C[C@H]3C#N)C(=O)N(C)c3ccccc34)cc12 [Example 120] | > 1000 nM |
| COc1cccc2[nH]c(C(=O)N(C)[C@@H](CC(C)C)C(=O)N3C[C@]4(C[C@H]3C#N)C(=O)N(C)c3ccccc34)cc12 [Example 121] | 100 to 1000 nM |
| CC(C)C[C@H](NC(=O)NCc1ccccc1)C(=O)N1C[C@]2(C[C@H]1C#N)C(=O)Nc1ccccc12 [Example 122] | 100 to 1000 nM |
| CC(C)(F)C[C@H](NC(=O)c1cc2c(F)cc(F)cc2[nH]1)C(=O)N1C[C@]2(C[C@H]1C#N)C(=O)Nc1ccc(Cl)cc12 [Example 123] | < 100 nM |

| Compound | EC50 |
| --- | --- |
| CCCOC[C@H](NC(=O)c1cc2c(OC)cccc2[nH]1)C(=O)N1C[C@]2(C[C@H]1C#N)C(=O)Nc1ccccc12 [Example 126] | < 100 nM |
| C#CCOC[C@H](NC(=O)c1cc2c(OC)cccc2[nH]1)C(=O)N1C[C@]2(C[C@H]1C#N)C(=O)Nc1ccccc12 [Example 127] | < 100 nM |
| CC(C)(C)OC(=O)NC[C@H](NC(=O)c1cc2c(F)cc(F)cc2[nH]1)C(=O)N1C[C@]2(C[C@H]1C#N)C(=O)Nc1ccccc12 [Example 128] | > 1000 nM |
| N#C[C@@H]1C[C@@]2(CN1C(=O)[C@H](COCc1cnn[nH]1)NC(=O)c1cc3c(F)cc(F)cc3[nH]1)C(=O)Nc1ccccc12 [Example 129] | > 1000 nM |
| CC(C)(C)C[C@H](NC(=O)c1ccc2ncc(C(F)(F)F)cc2c1)C(=O)N1C[C@]2(C[C@H]1C#N)C(=O)Nc1ccccc12 [Example 134] | < 100 nM |
| Cc1cnc2ccc(C(=O)N[C@@H](CC(C)(C)C)C(=O)N3C[C@]4(C[C@H]3C#N)C(=O)Nc3ccccc34)cc2c1 [Example 135] | < 100 nM |
| CC(C)(C)C[C@H](NC(=O)c1ccc2ncc(C3CC3)cc2c1)C(=O)N1C[C@]2(C[C@H]1C#N)C(=O)Nc1ccccc12 [Example 136] | < 100 nM |
| CC(C)(C)C[C@H](NC(=O)c1cc(OC(F)(F)F)c2ncccc2c1)C(=O)N1C[C@]2(C[C@H]1C#N)C(=O)Nc1ccccc12 [Example 137] | < 100 nM |
| CC(C)(C)C[C@H](NC(=O)c1cc(Cl)c2ncccc2c1)C(=O)N1C[C@]2(C[C@H]1C#N)C(=O)Nc1ccccc12 [Example 138] | < 100 nM |
| CC(C)(C)C[C@H](NC(=O)c1cc(OC(F)F)c2ncccc2c1)C(=O)N1C[C@]2(C[C@H]1C#N)C(=O)Nc1ccccc12 [Example 139] | < 100 nM |
| CC(C)(C)C[C@H](NC(=O)c1cn(-c2ccc(Cl)cc2)nn1)C(=O)N1C[C@]2(C[C@H]1C#N)C(=O)Nc1ccccc12 [Example 140] | < 100 nM |
| CC(C)(C)C[C@H](NC(=O)c1cn(C2CC2)nn1)C(=O)N1C[C@]2(C[C@H]1C#N)C(=O)Nc1ccccc12 [Example 141] | < 100 nM |
| CC(C)(C)C[C@H](NC(=O)c1cn(-c2cccc(Cl)c2)nn1)C(=O)N1C[C@]2(C[C@H]1C#N)C(=O)Nc1ccccc12 [Example 142] | < 100 nM |
| CC(C)(C)C[C@H](NC(=O)c1cn(CC(F)(F)F)nn1)C(=O)N1C[C@]2(C[C@H]1C#N)C(=O)Nc1ccccc12 [Example 143] | < 100 nM |
| CC(C)(C)C[C@H](NC(=O)c1cnn(CC(F)(F)F)c1)C(=O)N1C[C@]2(C[C@H]1C#N)C(=O)Nc1ccccc12 [Example 144] | < 100 nM |
| CC(C)(C)C[C@H](NC(=O)c1cnn(-c2ccc(C(F)(F)F)cc2)c1)C(=O)N1C[C@]2(C[C@H]1C#N)C(=O)Nc1ccccc12 [Example 145] | < 100 nM |
| Cc1cc2cc(C(=O)N[C@@H](CC(C)(C)C)C(=O)N3C[C@]4(C[C@H]3C#N)C(=O)Nc3ccccc34)cc(Cl)c2nc1C [Example 147] | < 100 nM |
| CC(C)(C)C[C@H](NC(=O)c1cn(C2CCC2)nn1)C(=O)N1C[C@]2(C[C@H]1C#N)C(=O)Nc1ccccc12 [Example 148] | < 100 nM |
| CC(C)C[C@@H](C(=O)N1C[C@]2(C[C@H]1C=O)C(=O)Nc1ccccc12)N(C)C(=O)c1cc2c(F)cc(F)cc2[nH]1 [Example 149] | < 100 nM |
| CC(C)C[C@@H](C(=O)N1C[C@]2(C[C@H]1C=O)C(=O)Nc1ccccc12)N(C)C(=O)c1cc2c(F)cc(F)c(F)c2[nH]1 [Example 150] | < 100 nM |

| Compound | EC50 |
| --- | --- |
| CC(C)C[C@@H](C(=O)N1C[C@]2(C[C@H]1C(O)S(=O)(=O)O)C(=O)Nc1ccccc12)N(C)C(=O)c1cc2c(F)cc(F)cc2[nH]1 (stereo partly drawn) [Example 153] | < 100 nM |
| CC(C)C[C@@H](C(=O)N1C[C@]2(C[C@H]1C(O)S(=O)(=O)O)C(=O)Nc1ccccc12)N(C)C(=O)c1cc2c(F)cc(F)c(F)c2[nH]1 (stereo partly drawn) [Example 154] | < 100 nM |
| CC(C)C[C@@H](C(=O)N1C[C@]2(C[C@H]1C(=O)C(=O)NC1CCCCC1)C(=O)Nc1ccccc12)N(C)C(=O)c1cc2c(F)cc(F)cc2[nH]1 [Example 155] | > 1000 nM |
| CC(C)C[C@@H](C(=O)N1C[C@]2(C[C@H]1C(=O)CO)C(=O)Nc1ccccc12)N(C)C(=O)c1cc2c(F)cc(F)cc2[nH]1 [Example 157] | 100 to 1000 nM |
| CC(C)C[C@@H](C(=O)N1C[C@]2(C[C@H]1C(=O)CO)C(=O)Nc1ccccc12)N(C)C(=O)c1cc2c(F)cc(F)c(F)c2[nH]1 [Example 158] | 100 to 1000 nM |
| CC(C)C[C@@H](C(=O)N1C[C@]2(C[C@H]1C(=O)CCl)C(=O)Nc1ccccc12)N(C)C(=O)c1cc2c(F)cc(F)c(F)c2[nH]1 [Example 159] | > 1000 nM |
| CC(C)C[C@@H](C(=O)N1C[C@]2(C[C@H]1C#N)C(=O)Nc1ccccc12)N(C(=O)OCc1ccccc1)C(C)C [Example 160] | > 1000 nM |
| CC(C)N(C(=O)OC(C)(C)C)[C@@H](Cc1ccccc1)C(=O)N1C[C@]2(C[C@H]1C#N)C(=O)Nc1ccccc12 [Example 161] | > 1000 nM |
| CC(C)C[C@@H](C(=O)N1C[C@]2(C[C@H]1C#N)C(=O)Nc1ccccc12)N(C)C(=O)c1cccc(Cl)c1 [Example 167] | < 100 nM |
| CC(C)C[C@@H](C(=O)N1C[C@]2(C[C@H]1C#N)C(=O)Nc1ccccc12)N(C)C(=O)c1ccc(Cl)cc1Cl [Example 168] | < 100 nM |
| CC(C)C[C@@H](C(=O)N1C[C@]2(C[C@H]1C#N)C(=O)Nc1ccccc12)N(C)C(=O)c1c(Cl)ccc(Cl)c1F [Example 169] | < 100 nM |
| COc1ccc(Cl)cc1C(=O)N(C)[C@@H](CC(C)C)C(=O)N1C[C@]2(C[C@H]1C#N)C(=O)Nc1ccccc12 [Example 170] | < 100 nM |
| CC(C)C[C@@H](C(=O)N1C[C@]2(C[C@H]1C#N)C(=O)Nc1ccccc12)N(C)C(=O)c1cc(Cl)c(F)cc1F [Example 171] | < 100 nM |
| CC(C)C[C@@H](C(=O)N1C[C@]2(C[C@H]1C#N)C(=O)Nc1ccccc12)N(C)C(=O)c1cc(Cl)cc(Cl)c1 [Example 172] | < 100 nM |
| CC(C)C[C@@H](C(=O)N1C[C@]2(C[C@H]1C#N)C(=O)Nc1ccccc12)N(C)C(=O)c1cc(F)cc(Cl)c1 [Example 173] | < 100 nM |
| CC(C)C[C@@H](C(=O)N1C[C@]2(C[C@H]1C#N)C(=O)Nc1ccccc12)N(C)C(=O)c1ccc(Cl)c(C(F)(F)F)c1 [Example 174] | < 100 nM |
| CC(C)C[C@@H](C(=O)N1C[C@]2(C[C@H]1C#N)C(=O)Nc1ccccc12)N(C)C(=O)c1ccc(Cl)c(F)c1F [Example 175] | < 100 nM |
| CC(C)C[C@@H](C(=O)N1C[C@]2(C[C@H]1C#N)C(=O)Nc1ccccc12)N(C)C(=O)c1ccc(F)c(C(F)(F)F)c1 [Example 177] | < 100 nM |
| CC(C)C[C@@H](C(=O)N1C[C@]2(C[C@H]1C#N)C(=O)Nc1ccccc12)N(C)C(=O)c1ccc(F)c(F)c1 [Example 178] | < 100 nM |
| CC(C)C[C@@H](C(=O)N1C[C@]2(C[C@H]1C#N)C(=O)Nc1ccccc12)N(C)C(=O)c1ccc(OC(F)(F)F)c(F)c1 [Example 179] | < 100 nM |
